Experimental data: article PMC6156138, “Combination of a Latency-Reversing Agent With a Smac Mimetic Minimizes Secondary HIV-1 Infection in vitro” (Frontiers in Microbiology, 2018)
Where two headings read alike, the source gives them in different places.

Columns and labels:
[1] = Cytotoxicity assay (Cytotoxicity LDH Assay Kit); type: cell-based; conditions: human
Method: To determine the cytotoxicity induced by LRAs and its related compounds, cells (5 × 10^5 cells/mL) were cultured in the presence or absence of LRA. After 24 h, cytotoxicity assays were performed using a Cytotoxicity LDH Assay Kit (Dojindo, Kumamoto, Japan) according to the manufacturer’s instructions. The number of living cells with the drug was measured and compared with those without the drug, and data are shown as percentage (%) of control.

[2] = test system: latent HIV-1-infected ACH-2 cells; test: HIV reactivation from latent cells: supernatant p24 antigen; type: cell-based; conditions: for viral production (supernatant p24 antigen levels): day 2, single drug (Figure 1A)
Method: (§1) The reactivation of HIV-1 from latently infected cells was determined by the measurement of supernatant p24 antigen and intracellular HIV-1 RNA levels. ACH-2 cells or U1 cells (5 × 10^5 cells/mL) were placed in 96-well plates, and then the cells were incubated with different concentrations of drugs for 24 h to extract RNA and for 48 h to collect the supernatant. The increase in supernatant p24 antigen levels was measured using […] G1200 (Fujirebio, Tokyo, Japan). The total RNA was extracted using an RNeasy Mini Kit (Qiagen, Hilden, Germany), following the manufacturer’s protocols. The cDNA was synthesized using PrimeScript RT Master Mix (Takara Bio, Shiga, Japan), and quantitative real-time PCR analyses for the intracellular HIV-1 RNA were carried out with PowerUp^TM SYBR Green Master Mix (Applied Biosystems, Foster City, CA, United States). The oligonucleotide primers used were as follows: 5′-[…]-3′ (forward) and 5′-[…]-3′ (reverse) for HIV-RNA detection; 5′-[…]-3′ (forward) and 5′-[…]-3′ (reverse) for β-actin. The HIV-RNA expressions were normalized with that of β-actin, which was indicated as the relative quantity, and the increase in HIV-1 RNA levels in the presence of a drug was compared with that without a drug.
(§2) FIGURE 1 (A,B) The increase in viral production from ACH-2 cells (A) and U1 cells (B) was examined by supernatant p24 antigen levels on day 2. (C,D) Changes in the intracellular HIV-1 mRNA levels due to treatment with these drugs in ACH-2 cells (C) and U1 cells (D) after 24 h of incubation.
FIGURE 2 (A) Effect of birinapant when combined with TNF-α. The supernatant p24 levels with birinapant (1∼100 nM) in ACH-2 cell culture on day 2 are shown in white bars, and p24 values with birinapant when combined with TNF-α (10 ng/ml) are shown in black bars. (B) HIV-1 production from ACH-2 cells when reactivated by PEP005 (0.05∼50 nM) for 24 h. (C) Changes in the living cell numbers in the presence of drug(s) on days 1, 3, and 5.

[3] = Toxicity on PHA-stimulated PBMCs from healthy donor (WST-8 assay); type: cell-based; conditions: human
Method: Table S1. CC50 values on PHA-stimulated PBMCs from healthy donor
PBMCs (2 x 10^6 cells/ml) were treated with birinapant or PEP005 and cultured for 3days. Cell viability was
Table S2. Toxicity of PEP005 and birinapant in combination
Agent (concentration) % replication
PEP005 (1 µM) + birinapant (1 µM) 65.5 %
PBMCs (2 x 10^6 cells/ml) were treated with birinapant (10 nM - 10 µM) and/or PEP005 (10 nM - 100 µM)
and cultured for 3 days. Cell viability was measured by WST-8 assay.

[4] = test system: PBMCs from a cART-treated HIV-1 patient; test: Cytotoxicity in PBMCs from HIV-1-infected patient (PI staining, flow cytometry); type: cell-based, human; conditions: PBMCs of cART-treated HIV-1 patient, 24 h; birinapant 50 nM, PEP005 5 nM
Method: Supplementary file Data_Sheet_3.PDF: FIGURE S3 The combined effect of birinapant (50 nM) and PEP005 (5 nM) on cytotoxicity in PBMCs obtained from HIV-1-infected patients. PBMCs from a cART-treated HIV-1 patient were cultured for 24 h in the presence or absence of drug(s), and the percentage of propidium iodide (PI)^+ cells were measured by flow cytometric analysis. Click here for additional data file.

[5] = test system: latent HIV-1-infected U1 cells; test: HIV reactivation from latent cells: supernatant p24 antigen; type: cell-based; conditions: day 2, single drug (Figure 1B)
Method: as §1, §2

[6] = A3.01 cells, read-out: CC50 ± SD against A3.01
[7] = ACH-2 cells, read-out: CC50 ± SD against ACH-2
[8] = HL-60 cells, read-out: CC50 ± SD against HL-60
[9] = J1.1 cells, read-out: CC50 ± SD against J1.1
[10] = Jurkat cells, read-out: CC50 ± SD against Jurkat
[11] = OM10.1 cells, read-out: CC50 ± SD against OM10.1
[12] = U1 cells, read-out: CC50 ± SD against U1
[13] = U937 cells, read-out: CC50 ± SD against U937

In the case of `CC[C@H](NC(=O)[C@H](C)NC)C(=O)N1C[C@@H](O)C[C@H]1Cc1c(-c2[nH]c3cc(F)ccc3c2C[C@@H]2C[C@H](O)CN2C(=O)[C@H](CC)NC(=O)[C@H](C)NC)[nH]c2cc(F)ccc12` [Birinapant], the CC50 at 24 h [1, 6] is reported as 0.2 ± 0.08 µM, the CC50 at 24 h [1, 7] is reported as over 100 µM and the CC50 at 24 h [1, 8] is reported as over 100 µM. For the same compound, the CC50 at 24 h [1, 9] was 48 ± 0.9 µM, the CC50 at 24 h [1, 10] was 13 ± 0.1 µM and the CC50 at 24 h [1, 11] was 53 ± 8 µM. The CC50 at 24 h [1, 12] was over 100 µM, the CC50 at 24 h [1, 13] was over 100 µM and the “decrease of supernatant p24 levels” value ([2]; ACH-2 cells reactivated by PEP005 (or TNF-α), simultaneously treated with birinapant 50 nM, 24 h) was about 40%. For the same compound, the “supernatant p24 antigen levels” value ([2]; ACH-2 cells, birinapant 1∼100 nM alone, day 2 (Figure 2A)) was “failed to affect supernatant p24 antigen levels”, the “viral production (supernatant p24 antigen levels)” value (from here on “viral production”) ([2]; ACH-2 cells) was “only had a minor effect on HIV-1 reactivation” and the CC50 at 3 days [3] was 10.7 ± 0.2 µM. The “ratio of dead cells (PI staining)” value [4] was “slightly increased the ratio of dead cells” and the “viral production” value [5] was “only had a minor effect on HIV-1 reactivation”.

Work on `C/C=C(/C)C(=O)O[C@H]1C(C)=C[C@]23C(=O)[C@@H](C=C(CO)[C@@H](O)[C@]12O)[C@H]1[C@@H](C[C@H]3C)C1(C)C` [PEP005, ingenol-3-angelate] yielded a CC50 at 24 h [1, 6] of 47 ± 9 µM, a CC50 at 24 h [1, 7] of 19 ± 0.4 µM and a CC50 at 24 h [1, 8] of over 100 µM. The CC50 at 24 h [1, 9] was 44 ± 2 µM, the CC50 at 24 h [1, 10] was 16 ± 3 µM and the CC50 at 24 h [1, 11] was 84 ± 6 µM. The CC50 at 24 h [1, 12] was over 100 µM, the CC50 at 24 h [1, 13] was over 100 µM and the “supernatant HIV-1 p24 levels” value ([2]; ACH-2 cells, after 24 h, PEP005 5 nM and higher (Figure 2B)) was “reactivated and increased the supernatant HIV-1 p24 levels”. For the same compound, the “increase of supernatant HIV-1 p24 levels compared with unstimulated ACH-2 cells” value ([2]; ACH-2 cells, day 2 (Figure 1A)) was over 100 fold, the “viral production” value ([2]; ACH-2 cells) was “increased viral production” and the CC50 at 3 days ([3]; PHA-stimulated PBMCs from healthy donor, 3 days, WST-8 assay, read-out: CC50 (µM) ± SD) was over 100 µM. For the same compound, the “ratio of dead cells (PI staining)” value [4] was “failed to increase the number of dead cells” and the “viral production” value [5] was “increased viral production”.
